Test results reported in the NIST ThermoML archive (doi:10.1016/j.jct.2016.02.014).

Experiment: xn = mol fraction of the nth substance listed
Conditions: 100 kPa, Liquid; for viscosity: Capillary tube (Ostwald / Ubbelohde) method; for mass density: Vibrating tube method

O=C1CCCO1 [γ-butyrolactone] + CCCCn1cc[n+](C)c1.N#CN=C=[N-]
Conditions | mass density [kg/m3] | viscosity [mPa·s]
273.15 K, x2 = 0 | 1149.15 | 2.69
273.15 K, x2 = 0.0504 | 1142.33 | 3.61
273.15 K, x2 = 0.1002 | 1136.31 | 4.65
273.15 K, x2 = 0.2002 | 1124.63 | 7.69
273.15 K, x2 = 0.2984 | 1114.82 | 11.85
273.15 K, x2 = 0.4005 | 1106.01 | 17.81
273.15 K, x2 = 0.4954 | 1099.09 | 24.81
273.15 K, x2 = 0.6957 | 1087.48 | 45.75
273.15 K, x2 = 0.8871 | 1079.17 | 74.11
283.15 K, x2 = 0 | 1139.31 | 2.21
283.15 K, x2 = 0.0504 | 1133.08 | 2.94
283.15 K, x2 = 0.1002 | 1127.5 | 3.73
283.15 K, x2 = 0.2002 | 1116.53 | 5.87
283.15 K, x2 = 0.2984 | 1107.21 | 8.75
283.15 K, x2 = 0.4005 | 1098.76 | 12.54
283.15 K, x2 = 0.4954 | 1092.29 | 16.9
283.15 K, x2 = 0.6957 | 1081.06 | 29.14
283.15 K, x2 = 0.8871 | 1072.88 | 44.36
293.15 K, x2 = 0 | 1129.49 | 1.86
293.15 K, x2 = 0.0504 | 1123.86 | 2.42
293.15 K, x2 = 0.1002 | 1118.73 | 2.97
293.15 K, x2 = 0.2002 | 1108.38 | 4.53
293.15 K, x2 = 0.2984 | 1099.49 | 6.68
293.15 K, x2 = 0.4005 | 1091.44 | 9.31
293.15 K, x2 = 0.4954 | 1085.13 | 12.22
293.15 K, x2 = 0.6957 | 1074.27 | 19.95
293.15 K, x2 = 0.8871 | 1066.34 | 28.87
298.15 K, x2 = 0 | 1124.59 | 1.71
298.15 K, x2 = 0.0504 | 1119.26 | 2.22
298.15 K, x2 = 0.1002 | 1114.35 | 2.77
298.15 K, x2 = 0.2002 | 1104.32 | 4.16
298.15 K, x2 = 0.2984 | 1095.65 | 5.92
298.15 K, x2 = 0.4005 | 1087.78 | 8.18
298.15 K, x2 = 0.4954 | 1081.58 | 10.57
298.15 K, x2 = 0.6957 | 1070.9 | 16.81
298.15 K, x2 = 0.8871 | 1063.09 | 23.85
303.15 K, x2 = 0 | 1119.68 | 1.59
303.15 K, x2 = 0.0504 | 1114.67 | 2.03
303.15 K, x2 = 0.1002 | 1109.99 | 2.5
303.15 K, x2 = 0.2002 | 1100.28 | 3.81
303.15 K, x2 = 0.2984 | 1091.83 | 5.27
303.15 K, x2 = 0.4005 | 1084.14 | 7.14
303.15 K, x2 = 0.4954 | 1078.05 | 9.15
303.15 K, x2 = 0.6957 | 1067.55 | 14.23
303.15 K, x2 = 0.8871 | 1059.86 | 19.86
313.15 K, x2 = 0 | 1109.87 | 1.37
313.15 K, x2 = 0.0504 | 1105.49 | 1.74
313.15 K, x2 = 0.1002 | 1101.27 | 2.14
313.15 K, x2 = 0.2002 | 1092.23 | 3.14
313.15 K, x2 = 0.2984 | 1084.22 | 4.27
313.15 K, x2 = 0.4005 | 1076.84 | 5.64
313.15 K, x2 = 0.4954 | 1071.02 | 7.11
313.15 K, x2 = 0.6957 | 1060.89 | 10.69
313.15 K, x2 = 0.8871 | 1053.44 | 14.53
323.15 K, x2 = 0 | 1100.05 | 1.2
323.15 K, x2 = 0.0504 | 1096.31 | 1.52
323.15 K, x2 = 0.1002 | 1092.59 | 1.83
323.15 K, x2 = 0.2002 | 1084.21 | 2.63
323.15 K, x2 = 0.2984 | 1076.75 | 3.56
323.15 K, x2 = 0.4005 | 1069.73 | 4.6
323.15 K, x2 = 0.4954 | 1064.05 | 5.7
323.15 K, x2 = 0.6957 | 1054.29 | 8.38
323.15 K, x2 = 0.8871 | 1047.09 | 11.03
